Reference: publication PMC10065791 (eLife, 2023)
Read-outs that look alike come from different tables or passages of the source.

Assays:
[1] = test system: HIV-1 NL4-3 wild-type virus; experiment: Selection for resistance in CEMx174 culture with escalating inhibitor, start wild-type virus, Primer ID deep sequencing; type: cell-based
Protocol: . The selection experiments were performed under two separate starting conditions: first when the starting virus was generated from the NL4-3 clone (this clone closely approximates the clade B consensus for the protease amino acid sequence and will be referred to as ‘wild type’), then again when the starting virus was a mixture of 26 isogenic viruses each with a single mutation associated with drug resistance in the NL4-3 background. […]. For technical reasons, only five of the selections starting with the mixture of mutants reached an inhibitor concentration as high as 400 nM and are reported here (Figure 2—figure supplement 3).
Resistance mutations selected in the protease coding domain during the escalating selective pressure of increasing PI concentration were examined at various timepoints using a next-generation sequencing (NGS) protocol that included Primer ID with the MiSeq platform ([Zhou et al., 2015]). We first examined the sequence of the most abundant variant in each of the two selection schemes present at the highest inhibitor concentration reached (Figure 2A). For those selections that reached 5 μM, 8–14 mutations were present in the most abundant variant. Typically the next two most abundant variants in the population differed by a single amino acid, and on average the three most abundant variants in the 5 μM cultures accounted for 88% of the total viral population (Figure 2—source data 1). Evolution of resistance followed two pathways, one based on I50V and one based on I84V. In three cultures, V2wt, V5wt, and V2mut (which reached either 4 or 5 μM final drug concentration; V2wt indicates the virus pool selected with UMASS-2 starting with wild-type virus), these two mutations, I84V and I50V, became linked on the same genome (Figure 2A) showing they are not mutually exclusive; […].
(§1) An aliquot of 3 × 10^6 CEMx174 cells was incubated at 37°C for 2–3 hr with 250 µl of a virus stock generated from the HIV-1 infectious molecular clone pNL4-3. The culture volume was then brought to 10 ml with RPMI medium. […] After 48 hr and every 48 hr after, the cells were pelleted by centrifugation and 10 ml of fresh medium and inhibitors were added. When the culture had undergone extensive cytopathic effect (CPE) indicative of viral replication, the supernatant medium and the cells were harvested separately and stored at –80°C. The virus-containing supernatant was used to start the next round of infection, and after several rounds at the initial concentration, the inhibitor concentration was increased 1.5-fold at each subsequent round of virus passage.
We used the PID protocol to prepare MiSeq PID libraries with multiplexed primers. Viral RNA was extracted from plasma samples using the QIAamp viral RNA mini kit (QIAGEN, Hilden, Germany). Complementary DNA (cDNA) was synthesized using a cDNA primer mixture targeting protease (PR) with a block of random nucleotides in each cDNA primer serving as the PID, and SuperScript III RT (Thermo Fisher). After two rounds of bead purification of the cDNA, we amplified the cDNA using a mixture of a forward primer that targeted the upstream coding region, followed by a second round of PCR to incorporate the Illumina adaptor sequences. Gel-purified libraries were pooled and sequenced using the MiSeq 300 base paired-end sequencing protocol (Illumina). The sequencing covered the HIV-1 PR region (HXB2 2648-2914, 3001-3257).
We used the Illumina bcl2fastq pipeline for the initial processing and constructed template consensus sequences (TCSs) with TCS pipeline version 1.33 (https://github.com/SwanstromLab/PID) ([Zhou, 2019]). We then aligned TCSs to an HXB2 reference to remove sequences not at the targeted region or that had large deletions. We used the Entropy tool at LANL (https://www.hiv.lanl.gov/content/sequence/ENTROPY/entropy.html) to calculate entropy for each specimen. The sequencing data is available at NIH Sequencing Read Archive (SRA) under BioProject ID PRJNA853351.

wild-type NL4-3 protease [2] = target: T1, wild-type NL4-3 protease (Human immunodeficiency virus type 1 group M subtype B, UniProt P12497, Q495K); experiment: Ki assay (FRET enzyme inhibition), wild-type protease; type: biochemical, HIV-1; conditions: limit of detection 5 pM, read-out: Ki WT
T1 construct: the gene encoding the desired HIV-1 protease was subcloned into the heat-inducible pXC35 expression vector; made in house
Protocol: (§2) The highly mutated, resistant, protease variant genes were purchased on a pET11a plasmid with codon optimization for protein expression in Escherichia coli (Genewiz). A Q7K mutation was included to prevent autoproteolysis ([Rosé et al., 1993]). The expression, isolation, and purification of WT and mutant HIV-1 proteases used for enzymatic assays were carried out as previously described ([Henes et al., 2019]; [King et al., 2002]; [Özen et al., 2014]). Briefly, the gene encoding the desired HIV-1 protease was subcloned into the heat-inducible pXC35 expression vector (ATCC) and transformed into E. coli TAP-106 cells. Cells grown in 6 l of Terrific Broth were lysed with a cell disruptor twice, and the protein was purified from inclusion bodies ([Hui et al., 1993]). Inclusion bodies, isolated as a pellet after centrifugation, were dissolved in 50% acetic acid followed by another round of centrifugation at 19,000 rpm for 30 min to remove insoluble impurities. Size-exclusion chromatography was carried out on a 2.1 l Sephadex G-75 Superfine (Sigma Chemical) column equilibrated with 50% acetic acid to separate high molecular weight proteins from the desired protease. Pure fractions of HIV-1 protease were refolded using a tenfold dilution of refolding buffer (0.05 M sodium acetate at pH 5.5, 5% ethylene glycol, 10% glycerol, and 5 µM DTT). Folded protein was concentrated to 0.5–3 mg/ml and stored. The stored protease was used in KM and Ki assays.
(§3) Enzyme inhibition constants (Ki values) were determined as previously described ([Henes et al., 2019]; [Lockbaum et al., 2019]; [Matayoshi et al., 1990]; [Windsor and Raines, 2015]). Briefly, in a 96-well plate, inhibitors were serially diluted down from […] depending on protease resistance. All samples were incubated with 5 nM protein for 1 hr. A 10-amino acid substrate containing an optimized protease cleavage site ([Windsor and Raines, 2015]), purchased from Bachem, with an EDANS/DABCYL FRET pair was dissolved in 4% DMSO at 120 µM. Using a PerkinElmer Envision plate reader, 5 µl of the 120 µM substrate were added to the 96-well plate to a final concentration of 10 µM. […] Data was analyzed with Prism7.

I84V mutant protease [3] = target: T2, I84V mutant protease (Human immunodeficiency virus type 1 group M subtype B, UniProt P12497, I572V/Q495K); experiment: Ki assay (FRET enzyme inhibition), I84V protease; type: biochemical, HIV-1; conditions: I84V drug-resistant protease variant
T2 construct: the gene encoding the desired HIV-1 protease was subcloned into the heat-inducible pXC35 expression vector; made in house
Protocol: as §2, §3

wild-type virus NL4-3 = experiment: TZM infection assay (cell culture-based viral inhibition), wild-type virus; set-up: species or system HIV-1; conditions: Human immunodeficiency virus 1, NL43; wild-type NL4-3 virus; concentration at time of virus production reducing infectivity by 50%; TZM-bl readout
Protocol: (§4) PI dilutions were prepared by taking 10 µM stocked and performing a fivefold serial dilution using RPMI media (final drug concentration is […]). One dilution of drug was added to each well of a 24-well plate and repeated so each virus would have a full set of dilutions. Viruses for the assay were made by seeding 3 × 10^6 CEM cells in a 24-well plate and incubating with 250 µl of virus at 37°C for 2–3 hr before bringing the culture to 10 ml with RPMI media. After 48 hr, the medium was changed and repeated every 48 hr after until the culture had undergone CPE. Infected CEM cells were collected and diluted so that 1 ml of cells could be plated in each well containing a unique drug dilution. Then 24 hr later the virus supernatant was collected from each well followed by filtering through a […] then placed in –80°C. Viruses were thawed and added to 96-well plates in triplicate. TZM-bl cells were collected and diluted to a concentration of 2 × 10^5 cells/ml, 100 µl were added on top of the pre-plated viruses. Plates were kept in 37°C, 5% CO2 in an incubator for 48 hr. After 48 hr, the cells in the plates were lysed by removing the medium, washing two times with 100 µl PBS, and then lysed with 1× lysis buffer (made from 5× Promega Firefly Lysis Buffer). Plates were frozen for at least 24 hr and then thawed for 2 hr before analyzing with Promega Firefly Luciferase Kit on a luminometer. Data was analyzed with Prism 7 to fit sigmoidal dose–response curves.

[4] = target: T3, I50V/A71V mutant protease (Human immunodeficiency virus type 1 group M subtype B, UniProt P12497, A559V/I538V/Q495K); experiment: Ki assay (FRET enzyme inhibition), I50V/A71V protease; type: biochemical, HIV-1; conditions: I50V/A71V drug-resistant protease variant
T3 construct: the gene encoding the desired HIV-1 protease was subcloned into the heat-inducible pXC35 expression vector; made in house
Protocol: as §2, §3

[5] = test system: virus pool selected to 5000 nM inhibitor; experiment: TZM infection assay, inhibitor-selected resistant virus pools; type: cell-based, HIV-1; conditions: Human immunodeficiency virus 1, read-out: EC50 Viral culture (5000 nM)
Protocol: In addition to the sequence of the terminally selected virus, we validated that selection occurred over the entire course of the selection protocol. […] In comparing the number of mutations present in cultures using the I84V versus the I50V pathway, we noted that on average there were more mutations in the I50V viruses at the intermediate drug concentration compared to the I84V viruses (100 nM, p=0.03), and this trend continued at the higher drug concentration.
as §1, §4

I84V mutant protease [6] = target: T2, I84V mutant protease; set-up: method as in Lockbaum et al. (ACS Infect Dis. 2019 Feb 8; 5 (2): 316–325); conditions: I84V drug-resistant protease variant; previously reported; ref Lockbaum et al. (ACS Infect Dis. 2019 Feb 8; 5 (2): 316–325); cited from earlier work
[7] = target: T3, I50V/A71V mutant protease; set-up: method as in Lockbaum et al. (ACS Infect Dis. 2019 Feb 8; 5 (2): 316–325); conditions: I50V/A71V drug-resistant protease variant; previously reported; ref Lockbaum et al. (ACS Infect Dis. 2019 Feb 8; 5 (2): 316–325); cited from earlier work
wild-type NL4-3 protease [8] = target: T1, wild-type NL4-3 protease; set-up: method as in Lockbaum et al. (ACS Infect Dis. 2019 Feb 8; 5 (2): 316–325); conditions: previously reported, ref Lockbaum et al. (ACS Infect Dis. 2019 Feb 8, 5 (2): 316–325), read-out: Ki WT; cited from earlier work

## CCC(CC)CN(C[C@@H](O)[C@H](Cc1ccccc1)NC(=O)O[C@H]1CO[C@H]2OCC[C@H]21)S(=O)(=O)c1ccc2ncsc2c1 [UMASS-10]
[1]; variant 10F/13V/33F/43T/46I/47V/50V/54L/71V/77I/82L/88S, passage 77, [PI] 5000 nM
  Abundance of variant at the last time point: 1.6%
[1]; variant 10F/13V/33F/43T/46I/47V/50V/54L/71V/82L/87K/88S, passage 77, [PI] 5000 nM
  Abundance of variant at the last time point: 0.2%
[1]; variant 10F/13V/33F/43T/46I/47V/50V/54L/71V/82L/88S, passage 77, [PI] 5000 nM
  Abundance of variant at the last time point: 91.2%
wild-type NL4-3 protease [2]
  Ki: < 0.005 nM
I84V mutant protease [3]
  Ki: 0.0143 ± 0.0093 nM
wild-type virus NL4-3
  EC50: 4.1 ± 0.9 nM
[4]
  Ki: 0.0058 ± 0.0011 nM

## CCC(CC)CN(C[C@@H](O)[C@H](Cc1ccccc1)NC(=O)O[C@H]1CO[C@H]2OCC[C@H]21)S(=O)(=O)c1ccc(CO)cc1 [UMASS-8]
[1]; variant 10F/12K/33F/46I/47V/50V/53L/54L/63P/71V/82I/85V, passage 67, [PI] 5000 nM
  Abundance of variant at the last time point: 55.4%
[1]; variant 10F/12K/33F/46I/47V/50V/53L/54L/63P/71V/82I/85V/87K, passage 67, [PI] 5000 nM
  Abundance of variant at the last time point: 0.1%
[1]; variant 10F/33F/46I/47V/50V/53L/54L/63P/71V/82I/85V, passage 67, [PI] 5000 nM
  Abundance of variant at the last time point: 41.9%
wild-type NL4-3 protease [2]
  Ki: < 0.005 nM
I84V mutant protease [3]
  Ki: < 0.005 nM
wild-type virus NL4-3
  EC50: 4.2 ± 0.9 nM
[4]
  Ki: 0.0554 ± 0.004 nM

## CC(C)CN(C[C@@H](O)[C@H](Cc1ccccc1)NC(=O)O[C@H]1CO[C@H]2OCC[C@H]21)S(=O)(=O)c1ccc(N)cc1 [DRV, Darunavir, reference compound]
[1]; variant 10I/32I/41I/46I/47V/82I/84V/85V, passage 43, [PI] 1350 nM
  Abundance of variant at the last time point: 10.3%
[1]; variant 32I/41I/46I/47V/82I/84V/85V, passage 43, [PI] 1350 nM
  Abundance of variant at the last time point: 62.8%
[1]; variant 32I/41I/46I/47V/82L/84V/85V, passage 43, [PI] 1350 nM
  Abundance of variant at the last time point: 10.1%
wild-type virus NL4-3
  EC50: 7.7 ± 1.6 nM
[5]
  EC50: > 100000 nM

## CC[C@H](C)CN(C[C@@H](O)[C@H](Cc1ccccc1)NC(=O)O[C@H]1CO[C@H]2OCC[C@H]21)S(=O)(=O)c1ccc(N)cc1 [UMASS-1]
I84V mutant protease [6]
  Ki: 0.0261 ± 0.0037 nM
[7]
  Ki: 0.11 ± 0.0088 nM
[1]; variant 10I/16E/32I/33F/46I/54L/71V/76V/82I/84V, passage 75, [PI] 5000 nM
  Abundance of variant at the last time point: 55.4%
[1]; variant 10I/16E/32I/33F/46I/54L/71V/76V/82I/84V/91S, passage 75, [PI] 5000 nM
  Abundance of variant at the last time point: 6.2%
[1]; variant 10I/32I/33F/46I/54L/71V/76V/82I/84V, passage 75, [PI] 5000 nM
  Abundance of variant at the last time point: 21.9%
wild-type NL4-3 protease [8]
  Ki: < 0.005 nM
wild-type virus NL4-3
  EC50: 5.9 ± 1 nM

## CC[C@H](C)CN(C[C@@H](O)[C@H](Cc1ccccc1)NC(=O)O[C@H]1CO[C@H]2OCC[C@H]21)S(=O)(=O)c1ccc(OC)cc1 [UMASS-2]
[1]; variant 10F/33F/46I/47V/50V/71V/82I/84V, passage 82, [PI] 5000 nM
  Abundance of variant at the last time point: 37.5%
[1]; variant 28S/32I/33F/46I/47V/50V/71V/82I/84V, passage 82, [PI] 5000 nM
  Abundance of variant at the last time point: 33.5%
[1]; variant 33F/46I/47V/50V/71V/82I/84V, passage 82, [PI] 5000 nM
  Abundance of variant at the last time point: 4.2%
wild-type NL4-3 protease [2]
  Ki: < 0.005 nM
I84V mutant protease [3]
  Ki: < 0.005 nM
wild-type virus NL4-3
  EC50: 2.4 ± 0.3 nM
[4]
  Ki: 0.015 ± 0.0027 nM
